Like-named read-outs stand apart in the source and are kept apart here.
Key:
[1] = target: human CB2 receptor (hCB2) (Homo sapiens, UniProt P34972); test: cAMP assay at human CB2 receptor; format: cell-based; conditions: hCB2R, maximum measurable range 30 μM
Experimental: (§1) TR-FRET was measured using a 330-380 nm excitation filter, 615 nm and 665 nm emission filters, dichroic minor 380 nm and Z=10 mm. cAMP concentrations in each well were back-calculated from a cAMP standard curve run concurrently during each assay. Each plate contained 16 wells of forskolin stimulated cells and 16 wells of forskolin plus 1 μM CP55,940-treated cells. Concentrations of cAMP were expressed as a percent of the difference of these two groups of wells.

[2] = target: human CB1 receptor (hCB1) (Homo sapiens, UniProt P21554); test: cAMP assay at human CB1 receptor; format: cell-based; conditions: hCB1R; maximum measurable range 30 μM; read-out: EC50 (Potency at Human CB1 determined by cAMP Assay)
Experimental: The ability of each of the compounds to act as agonists or inverse agonists at human CB2 and CB1 receptors (hCB2, hCB1, respectively) and at the rat CB2 receptor (rCB2) was determined by measuring changes in intracellular cyclic AMP (cAMP) levels as described in U.S. Pat. No. 7,517,874.
as §1, with “wells. Concentration-response data including EC50 (the concentration of compound producing 50% of the maximal response) and intrinsic activity (the percent maximal activation compared to full activation by CP55, 940) were determined using a four-parameter non-linear regression algorithm (CambridgeSoft Bioassay).” for “wells.”

[3] = read-out: EC50 (Potency at Human CB2 determined by cAMP Assay)
[4] = EC50 (Potency at Human CB2 determined by cAMP Assay)

Sequence of human CB1 receptor (hCB1) (P21554 whole entry): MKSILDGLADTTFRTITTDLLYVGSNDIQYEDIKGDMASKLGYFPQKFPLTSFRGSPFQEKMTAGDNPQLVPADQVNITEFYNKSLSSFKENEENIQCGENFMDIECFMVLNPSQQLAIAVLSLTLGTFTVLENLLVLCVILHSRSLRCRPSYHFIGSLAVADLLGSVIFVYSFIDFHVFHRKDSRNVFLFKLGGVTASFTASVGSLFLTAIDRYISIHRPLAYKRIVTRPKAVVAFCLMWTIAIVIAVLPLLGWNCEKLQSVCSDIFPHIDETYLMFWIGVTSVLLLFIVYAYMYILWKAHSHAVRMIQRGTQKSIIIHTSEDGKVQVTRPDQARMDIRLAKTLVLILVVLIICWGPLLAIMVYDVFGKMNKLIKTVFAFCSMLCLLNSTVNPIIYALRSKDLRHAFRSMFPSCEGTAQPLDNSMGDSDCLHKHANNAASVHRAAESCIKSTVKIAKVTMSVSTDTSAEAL
Sequence of human CB2 receptor (hCB2) (P34972 whole entry): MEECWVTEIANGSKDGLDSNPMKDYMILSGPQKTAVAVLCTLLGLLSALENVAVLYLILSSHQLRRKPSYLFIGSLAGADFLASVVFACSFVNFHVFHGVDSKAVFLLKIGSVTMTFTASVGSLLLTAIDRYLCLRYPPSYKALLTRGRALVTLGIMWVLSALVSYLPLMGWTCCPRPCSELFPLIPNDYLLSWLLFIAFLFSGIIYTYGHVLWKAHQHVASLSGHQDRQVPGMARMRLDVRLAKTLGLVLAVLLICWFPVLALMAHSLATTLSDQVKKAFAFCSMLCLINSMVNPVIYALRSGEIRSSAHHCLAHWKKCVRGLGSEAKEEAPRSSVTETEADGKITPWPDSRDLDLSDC

| Structure (SMILES) | EC50 [1, 3] | EC50 [2] | EC50 [1, 4] |
| --- | --- | --- | --- |
| CC(C)C[C@H](NC(=O)[C@@H](NC(=O)n1nc(-c2cc(F)c(F)cc2F)c2c1CCN(C)C2)C(C)(C)C)C(N)=O [Compound 72, N—((S)-1-((S)-1-amino-4-methyl-1-oxopentan-2-ylamino)-3,3-dimethyl-1-oxobutan-2-yl)-5-methyl-3-(2,4,5-trifluorophenyl)-4,5,6,7-tetrahydro-1H-pyrazolo[4,3-c]pyridine-1-carboxamide] | > 1 µM | > 1 µM |  |
| CN1CCc2c(c(-c3cc(F)c(F)cc3F)nn2C(=O)N[C@H](C(=O)N2CCC[C@@H]2C(N)=O)C(C)(C)C)C1 [Compound 75, N—((S)-1-((R)-2-carbamoylpyrrolidin-1-yl)-3,3-dimethyl-1-oxobutan-2-yl)-5-methyl-3-(2,4,5-trifluorophenyl)-4,5,6,7-tetrahydro-1H-pyrazolo[4,3-c]pyridine-1-carboxamide] | > 1 µM | < 1 µM |  |
| CNC(=O)[C@@H](NC(=O)n1nc(-c2cc(F)c(F)cc2F)c2c1CCN(CCO)C2)C(C)(C)C [Compound 85, (S)—N-(3,3-dimethyl-1-(methylamino)-1-oxobutan-2-yl)-5-(2-hydroxyethyl)-3-(2,4,5-trifluorophenyl)-4,5,6,7-tetrahydro-1H-pyrazolo[4,3-c]pyridine-1-carboxamide] |  | < 1 µM | < 1 µM |
| CNC(=O)[C@@H](NC(=O)n1nc(-c2ccc(C(F)(F)F)cc2F)c2c1CCN(C)C2)C(C)(C)C [Compound 43, (S)—N-(3,3-dimethyl-1-(methylamino)-1-oxobutan-2-yl)-3-(2-fluoro-4-(trifluoromethyl)phenyl)-5-methyl-4,5,6,7-tetrahydro-1H-pyrazolo[4,3-c]pyridine-1-carboxamide] | > 1 µM | < 1 µM |  |
| CN1CCc2c(c(-c3cc(F)c(F)cc3F)nn2C(=O)N[C@H](C(=O)O)C(C)(C)C)C1 [Compound 71, (S)-3,3-dimethyl-2-(5-methyl-3-(2,4,5-trifluorophenyl)-4,5,6,7-tetrahydro-1H-pyrazolo[4,3-c]pyridine-1-carboxamido)butanoic acid] | > 30 µM | > 30 µM |  |
| CNC(=O)[C@@H](NC(=O)n1nc(-c2ccc(F)c(F)c2)c2c1CCCN2C)C(C)(C)C [Compound 62, (S)-3-(3,4-difluorophenyl)-N-(3,3-dimethyl-1-(methylamino)-1-oxobutan-2-yl)-4-methyl-4,5,6,7-tetrahydro-1H-pyrazolo[4,3-b]pyridine-1-carboxamide] |  | < 1 µM | < 1 µM |
| CN1CCc2c(c(-c3cc(F)c(F)cc3F)nn2C(=O)N[C@H](C(=O)N2CCC[C@H]2C(N)=O)C(C)(C)C)C1 [Compound 74, N—((S)-1-((S)-2-carbamoylpyrrolidin-1-yl)-3,3-dimethyl-1-oxobutan-2-yl)-5-methyl-3-(2,4,5-trifluorophenyl)-4,5,6,7-tetrahydro-1H-pyrazolo[4,3-c]pyridine-1-carboxamide] | > 1 µM | < 1 µM |  |
| CNC(=O)[C@@H]1CCCN1C(=O)[C@@H](NC(=O)n1nc(-c2cc(F)c(F)cc2F)c2c1CCN(C)C2)C(C)(C)C [Compound 76, N—((S)-3,3-dimethyl-1-((S)-2-(methyl-carbamoyl)pyrrolidin-1-yl)-1-oxobutan-2-yl)-5-methyl-3-(2,4,5-trifluorophenyl)-4,5,6,7-tetrahydro-1H-pyrazolo[4,3-c]pyridine-1-carboxamide] | > 1 µM | < 1 µM |  |
| CN1CCc2c(c(-c3cc(F)c(F)cc3F)nn2C(=O)N[C@H](C(=O)NCCC(N)=O)C(C)(C)C)C1 [Compound 73, (S)—N-(1-(3-amino-3-oxopropylamino)-3,3-dimethyl-1-oxobutan-2-yl)-5-methyl-3-(2,4,5-trifluorophenyl)-4,5,6,7-tetrahydro-1H-pyrazolo[4,3-c]pyridine-1-carboxamide] | > 1 µM | < 1 µM |  |
| CC[C@H](C)[C@H](NC(=O)n1nc(-c2ccc(F)c(F)c2)c2c1CCN(C)C2)C(N)=O [Compound 50, N-((2S,3S)-1-amino-3-methyl-1-oxopentan-2-yl)-3-(3,4-difluorophenyl)-5-methyl-4,5,6,7-tetrahydro-1H-pyrazolo[4,3-c]pyridine-1-carboxamide] |  | < 1 µM | < 1 µM |
| CNC(=O)[C@@H](NC(=O)n1nc(-c2ccc(F)c(F)c2)c2c1CCC(O)C2)C(C)(C)C (mixture of isomers) [Compound 67, 3-(3,4-difluorophenyl)-N—((S)-3,3-dimethyl-1-(methylamino)-1-oxobutan-2-yl)-5-hydroxy-4,5,6,7-tetrahydro-1H-indazole-1-carboxamide] |  | < 1 µM | < 1 µM |
| CN1CCc2c(c(-c3ccc(F)c(F)c3)nn2C(=O)N2CCC(O)CC2)C1 [Compound 45, (3-(3,4-difluorophenyl)-5-methyl-4,5,6,7-tetrahydro-1H-pyrazolo[4,3-c]pyridin-1-yl)(4-hydroxypiperidin-1-yl)methanone] | > 1 µM | > 1 µM |  |
| CNC(=O)[C@@H](NC(=O)n1nc(-c2ccc(F)c(F)c2)c2c1CCC(NC)C2)C(C)(C)C (stereo partly drawn) [Compound 68, 3-(3,4-difluorophenyl)-N—((S)-3,3-dimethyl-1-(methylamino)-1-oxobutan-2-yl)-5-(methylamino)-4,5,6,7-tetrahydro-1H-indazole-1-carboxamide] |  | < 1 µM | < 1 µM |
| CN1CCc2c(c(-c3cc(F)c(F)cc3F)nn2C(=O)N[C@H](C(=O)N2CCC[C@H](O)C2)C(C)(C)C)C1 [Compound 78] | > 1 µM | < 1 µM |  |
| CN1CCc2c(c(-c3ccc(F)c(F)c3)nn2C(=O)NC(C)(C)C)C1 [Compound 46, N-tert-butyl-3-(3,4-difluorophenyl)-5-methyl-4,5,6,7-tetrahydro-1H-pyrazolo[4,3-c]pyridine-1-carboxamide] | > 1 µM | < 1 µM |  |
| CNC(=O)[C@@H](NC(=O)n1nc(-c2ccc(F)c(F)c2)c2c1CCCC2)C(C)(C)C [Compound 29, (S)-3-(3,4-difluorophenyl)-N-(3,3-dimethyl-1-(methylamino)-1-oxobutan-2-yl)-4,5,6,7-tetrahydro-1H-indazole-1-carboxamide] |  | < 1 µM | < 1 µM |
| CN1CCc2c(c(-c3ccc(F)c(F)c3)nn2C(=O)N[C@H](C(=O)N2CC[C@H](O)C2)C(C)(C)C)C1 [Compound 47, 3-(3,4-difluorophenyl)-N—((S)-1-((S)-3-hydroxypyrrolidin-1-yl)-3,3-dimethyl-1-oxobutan-2-yl)-5-methyl-4,5,6,7-tetrahydro-1H-pyrazolo[4,3-c]pyridine-1-carboxamide] | > 1 µM | < 1 µM |  |
| CN1CCc2c(c(-c3cc(F)ccc3F)nn2C(=O)N[C@H](CO)C(C)(C)C)C1 [Compound 66, (S)-3-(2,5-difluorophenyl)-N-(1-hydroxy-3,3-dimethylbutan-2-yl)-5-methyl-4,5,6,7-tetrahydro-1H-pyrazolo[4,3-c]pyridine-1-carboxamide] | > 1 µM | < 1 µM |  |
| CC(C)(C)[C@H](NC(=O)n1nc(-c2ccc(F)c(F)c2)c2c1CCOC2)C(=O)N1CC[C@H](O)C1 [Compound 60, 3-(3,4-difluorophenyl)-N—((S)-1-((S)-3-hydroxypyrrolidin-1-yl)-3,3-dimethyl-1-oxobutan-2-yl)-6,7-dihydropyrano[4,3-c]pyrazole-1(4H)-carboxamide] |  | < 1 µM | < 1 µM |
| CNC(=O)[C@@H](NC(=O)n1nc(-c2cc(F)c(F)cc2F)c2c1CCCN2C)C(C)(C)C [Compound 39, (S)—N-(3,3-dimethyl-1-(methylamino)-1-oxobutan-2-yl)-4-methyl-3-(2,4,5-trifluorophenyl)-4,5,6,7-tetrahydro-1H-pyrazolo[4,3-b]pyridine-1-carboxamide] |  | < 1 µM | < 1 µM |
| CNC(=O)[C@@H](NC(=O)n1nc(-c2ccc(F)cc2)c2c1CCNC2)C(C)(C)C [Compound 53, (S)—N-(3,3-dimethyl-1-(methylamino)-1-oxobutan-2-yl)-3-(4-fluorophenyl)-4,5,6,7-tetrahydro-1H-pyrazolo[4,3-c]pyridine-1-carboxamide] |  | < 1 µM | < 1 µM |
| CCN1CCc2c(c(-c3cc(F)ccc3F)nn2C(=O)N[C@H](C(=O)NC)C(C)(C)C)C1 [Compound 65, (S)-3-(2,5-difluorophenyl)-N-(3,3-dimethyl-1-(methylamino)-1-oxobutan-2-yl)-5-ethyl-4,5,6,7-tetrahydro-1H-pyrazolo[4,3-c]pyridine-1-carboxamide] |  | < 1 µM | < 1 µM |
| CC(C)(C)[C@H](NC(=O)n1nc(-c2cc(F)c(F)cc2F)c2c1COCC2)C(=O)NCCO [Compound 97, (S)—N-(1-(2-hydroxyethylamino)-3,3-dimethyl-1-oxobutan-2-yl)-3-(2,4,5-trifluorophenyl)-4,5-dihydropyrano[3,4-c]pyrazole-1(7H)-carboxamide] |  | < 1 µM | < 1 µM |
